Experimental findings from ChEMBL document CHEMBL5512667, “Discovery of Potent, Selective, and Orally Available IRE1α Inhibitors Demonstrating Comparable PD Modulation to IRE1 Knockdown in a Multiple Myeloma Model” (J Med Chem, 2024) are described below.

Series [1] has as its target T1, Serine/threonine-protein kinase/endoribonuclease IRE1 (Homo sapiens, UniProt O75460). Kind of series: Inhibition of His-tagged IRE1alpha (G547 to L977 residues) (unknown origin) expressed in Sf9 cells preincubated with anti-His Europium labeled antibody for 1 hr prior to compound addition followed by tracer 236 addition and measured after 1 hr by TR-FRET assay. In general terms: In TR-FRET formats the signal depends on donor and acceptor labels being close together.

The target of series [2] is T1, Serine/threonine-protein kinase/endoribonuclease IRE1. Kind of series: Inhibition of IRE1alpha RNase activity (Q470 to L977 residues) (unknown origin) expressed in Sf9 cells using mini-XBP-1 stem-loop RNA as substrate measured every 2 mins interval for 50 mins by FRET assay.
The target is the same in series [3]. The series is described as follows: Inhibition of IRE1alpha RNase activity (unknown origin) using XBP1 as substrate preincubated for 1 hr followed by thapsigargin stimulation for 5 hrs by One-Glo luciferase reagent based luminescence assay.
Series [4] can be described thus: Apparent permeability across apical to basolateral side in MDCK cells at 10 uM incubated for 3 hrs by LC-MS/MS method. The class given is ADME, cell-based, Canis lupus familiaris. To be noted: dog.
Series [5] is described as follows: Plasma protein binding in mouse incubated for 4 hrs by LC-MS/MS based rapid equilibrium dialysis method. The class given is ADME, cell-free. The conditions noted are these: read-out: PPB (converted). For orientation: In equilibrium dialysis only unbound substance equilibrates across the membrane.
Series [6] is described as follows: Kinetic solubility of compound at pH 7.4. The class given is physicochemical. To be noted: buffer, read-out: Kinetic_solubility.
The nature of series [7]: Volume of distribution at steady state in CD-1 mouse at 10 mg/kg, po or 1 mg/kg, iv measured upto 24 hrs by LC-MS/MS analysis. The series is classed as ADME, organism-based. To be noted: in vivo.
Series [8] is described as follows: Half-life in CD-1 mouse at 10 mg/kg, po or 1 mg/kg, iv measured upto 24 hrs by LC-MS/MS analysis. The class given is ADME, organism-based. To be noted: in vivo.
Series [9] is described as follows: Bioavailability in CD-1 mouse at 10 mg/kg, po or 1 mg/kg, iv measured upto 24 hrs by LC-MS/MS analysis. The class given is ADME, organism-based. To be noted: in vivo.

Converted amounts (≈) assume the structure as drawn. Where only a bound is given, the exact number is not on record here.

T1 sequence (O75460 whole entry, the tested form may be a part): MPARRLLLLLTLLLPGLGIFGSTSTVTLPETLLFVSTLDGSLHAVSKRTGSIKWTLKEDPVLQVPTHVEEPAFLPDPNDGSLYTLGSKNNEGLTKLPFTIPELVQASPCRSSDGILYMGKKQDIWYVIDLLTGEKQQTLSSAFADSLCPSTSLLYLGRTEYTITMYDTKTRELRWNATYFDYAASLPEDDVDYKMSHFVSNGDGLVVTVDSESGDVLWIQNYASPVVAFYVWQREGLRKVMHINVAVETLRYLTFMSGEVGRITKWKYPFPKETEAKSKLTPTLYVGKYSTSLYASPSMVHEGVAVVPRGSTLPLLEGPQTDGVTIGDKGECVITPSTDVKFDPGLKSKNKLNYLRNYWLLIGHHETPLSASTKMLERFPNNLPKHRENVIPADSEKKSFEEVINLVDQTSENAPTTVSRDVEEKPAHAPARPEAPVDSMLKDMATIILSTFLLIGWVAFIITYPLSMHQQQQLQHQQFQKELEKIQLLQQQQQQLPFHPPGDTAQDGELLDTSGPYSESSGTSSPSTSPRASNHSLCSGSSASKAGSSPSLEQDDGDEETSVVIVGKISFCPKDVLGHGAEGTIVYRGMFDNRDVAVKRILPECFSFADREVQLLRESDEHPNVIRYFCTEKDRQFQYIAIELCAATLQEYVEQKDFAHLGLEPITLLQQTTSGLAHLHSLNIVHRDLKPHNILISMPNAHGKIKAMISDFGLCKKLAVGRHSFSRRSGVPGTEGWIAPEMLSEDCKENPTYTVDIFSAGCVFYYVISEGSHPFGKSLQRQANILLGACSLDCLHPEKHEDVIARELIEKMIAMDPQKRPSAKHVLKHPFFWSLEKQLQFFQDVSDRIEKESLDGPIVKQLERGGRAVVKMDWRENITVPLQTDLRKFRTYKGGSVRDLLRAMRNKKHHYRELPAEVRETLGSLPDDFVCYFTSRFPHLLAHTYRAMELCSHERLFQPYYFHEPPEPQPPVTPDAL

By IC50 is commonly meant the point on the concentration scale where inhibition reaches its midpoint. Read a low IC50 as inhibition by little substance. Turning to `Cc1ccc2c(NS(=O)(=O)c3ccccc3Cl)cccc2c1Oc1ncccc1-c1ccnc(Nc2cn[nH]c2)n1`, the IC50 in [1] was greater than 1 µM; in [2] it was greater than 10 µM; in series [3] it was greater than 50 µM.

Regarding `Cc1ccc2c(NS(=O)(=O)C3CCCC3)cccc2c1Oc1ncccc1-c1ccnc(N[C@H]2CCCNC2)n1`, the values for the IC50 in series [1], in series [2] and in series [3] were 0.0033 µM, 0.013 µM and 0.2 µM, respectively.

As for `Cc1ccc2c(Oc3ncccc3-c3ccnc(N[C@H]4CCCNC4)n3)c(C)ccc2c1NS(=O)(=O)CCC(F)(F)F`, the results for the half-inhibitory concentration (IC50) in series [1], in [2] and in series [3] were 0.00066 µM, 0.0033 µM and 0.042 µM, respectively.

As to `Cc1ccc2c(NS(=O)(=O)CC3CCCCC3)cccc2c1Oc1ncccc1-c1ccnc(N[C@H]2CCCNC2)n1`, the concentration for half-maximal inhibition (IC50) in series [1] came out at 0.0021 µM; in series [2] it was 0.024 µM; in [3] it was 1.3 µM.

Consider `Cc1ccc2c(NS(=O)(=O)Cc3ccccc3)cccc2c1Oc1ncccc1-c1ccnc(N[C@H]2CCCNC2)n1`, for which the half-inhibitory concentration (IC50) in series [1] was found to be 0.00035 µM; in series [2] it was 0.017 µM; in series [3] it was 0.018 µM.

Broadly, the Papp A→B is how fast a substance crosses the layer from the apical side. Regarding `Cc1c(Oc2ncccc2-c2ccnc(N[C@H]3CCCNC3)n2)cc(F)c(NS(=O)(=O)Cc2ccccc2)c1F`, the IC50 in [1] stood at 0.00029 µM; in series [2], 0.029 µM; in series [3] it was 0.037 µM. For the same compound, the Papp A→B at 3 h, 10 µM in series [4] came out at 1.1 ×10⁻⁶ cm/s.

`Cc1c(Oc2ncccc2-c2ccnc(N[C@H]3CCCNC3)n2)ccc(NS(=O)(=O)Cc2ccccc2)c1F`: the IC50 in series [1] was 0.0018 µM; in series [2], 0.024 µM; in series [3] it was 0.33 µM. Also, in series [4], the apical-to-basolateral permeability (Papp A→B) at 3 h, 10 µM is 2 ×10⁻⁶ cm/s.

For the compound `Cc1cc(NS(=O)(=O)Cc2ccccc2)ccc1Oc1ncccc1-c1ccnc(N[C@H]2CCCNC2)n1`, the values for the IC50 in series [1], in [2] and in series [3] were 0.029 µM, 0.17 µM and 4.4 µM, respectively.

Consider `Cc1ccc2c(NS(=O)(=O)c3ccccc3Cl)cccc2c1Oc1ncccc1-c1ccnc(N)n1`, for which the results for the IC50 in series [1], in series [2] and in series [3] were greater than 1 µM, greater than 10 µM and 32 µM, respectively.

In the case of `Cc1cc(NS(=O)(=O)Cc2ccccc2)c2ccccc2c1Oc1ncccc1-c1ccnc(N[C@H]2CCCNC2)n1`, the IC50 in [1] was 0.00038 µM; in series [2] it was 0.0054 µM; in series [3] it was 0.031 µM.

Take `Cc1ccc2c(NS(=O)(=O)c3ccccc3Cl)cccc2c1Oc1ncccc1-c1ccnc(NC2CCC(=O)NC2)n1` (stereo not drawn): the IC50 in series [1] worked out at 0.065 µM; in [2], 2.1 µM; in [3], 9 µM.

For the compound `Cc1ccc(CNC(=O)N2CCC[C@]3(CCN(Cc4ccc(Cl)c(Cl)c4)C3)C2)cc1`, the IC50 in series [1] turned out to be 0.66 µM; in series [2] it was 0.046 µM; in [3] it was 5.9 µM.

`Cc1ccc2c(NS(=O)(=O)C3CCCCC3)cccc2c1Oc1ncccc1-c1ccnc(N[C@H]2CCCNC2)n1`: the values for the half-inhibitory concentration (IC50) in series [1], in series [2] and in [3] were 0.0022 µM, 0.017 µM and 0.2 µM, respectively.

Regarding `CCCS(=O)(=O)Nc1cccc2c(Oc3ncccc3-c3ccnc(N[C@H]4CCCNC4)n3)c(C)ccc12`, the IC50 in [1] worked out at 0.0047 µM; in series [2] it was 0.0063 µM; in series [3], 0.14 µM.

Consider `Cc1cc(NS(=O)(=O)Cc2ccccc2)c(F)cc1Oc1ncccc1-c1ccnc(N[C@H]2CCCNC2)n1`, for which the half-maximal inhibitory concentration (IC50) in series [1] came out at 0.0021 µM; in series [2], 0.014 µM; in series [3], 0.31 µM.

For the compound `Cc1ccc2c(NS(=O)(=O)c3ccccc3Cl)cccc2c1Oc1ncccc1-c1ccnc(N[C@@H]2CNCC(F)(F)C2)n1`, the IC50 in [1] is 0.017 µM; in series [2], 0.25 µM; in series [3] it was 2.3 µM.

As to `Cc1ccc2c(NS(=O)(=O)c3ccccc3Cl)cccc2c1Oc1ncccc1-c1ccnc(N[C@H]2CCCOC2)n1`, the half-inhibitory concentration (IC50) in series [1] is 0.042 µM; in [2], greater than 10 µM; in series [3] it was 26 µM.

Broadly, the half-life is the time in which the quantity being followed falls by half. High values mean slow loss, low ones fast loss. Consider `C[C@@]1(F)CNC[C@@H](Nc2nccc(-c3cccnc3Oc3cc(F)c(NS(=O)(=O)Cc4ccccc4)c(F)c3F)n2)C1`, for which the IC50 in [1] amounted to 0.00059 µM; in series [2] it was 0.0074 µM; in series [3], 0.022 µM. Besides, the fraction unbound at 4 h in series [5] was 0.009. In series [6], the solubility kinetic came to 46 µM (≈ 27.7 µg/mL). Moreover, the Vdss in series [7] worked out at 1.04 L/kg. Also, in series [8], the half-life was 1.56 h. For the same compound, the Papp A→B at 3 h, 10 µM in [4] came to 7.3 ×10⁻⁶ cm/s. In addition, the bioavailability in series [9] came out at 109%.

Consider `Cc1cc(Oc2ncccc2-c2ccnc(N[C@H]3CCCNC3)n2)c(F)c(F)c1NS(=O)(=O)Cc1ccccc1`, for which the IC50 in series [1] was determined as 0.00029 µM; in series [2], 0.0045 µM; in series [3], 0.044 µM. In [4], the Papp A→B at 3 h, 10 µM amounted to 2.8 ×10⁻⁶ cm/s.

As for `Cc1ccc2c(NS(=O)(=O)c3ccccc3Cl)cccc2c1Oc1ncccc1-c1ccnc(N[C@H]2CCCN(CC(F)(F)F)C2)n1`, the concentration for half-maximal inhibition (IC50) was greater than 1 µM in [1], greater than 10 µM in series [2] and 28 µM in series [3].

For `O=S(=O)(Cc1ccccc1)Nc1c(F)cc(Oc2ncccc2-c2ccnc(N[C@@H]3CNC[C@H](CF)C3)n2)c(F)c1F`, the IC50 in series [1] stood at 0.00026 µM; in series [2], 0.0052 µM; in series [3], 0.032 µM. Also, in series [5], the fraction unbound at 4 h is 0.029. Also, the solubility kinetic in series [6] came out at 28 µM (≈ 16.9 µg/mL). Besides, in series [7], the Vdss worked out at 3.51 L/kg. Further, the half-life in [8] is 0.75 h. For the same compound, the Papp A→B at 3 h, 10 µM in [4] was found to be 2.6 ×10⁻⁶ cm/s. Moreover, in series [9], the bioavailability came to 36%.

For the compound `Cc1ccc2c(NS(=O)(=O)CCC(F)(F)F)cccc2c1Oc1ncccc1-c1ccnc(N[C@H]2CCCNC2)n1`, the results for the IC50 in series [1], in series [2] and in series [3] were 0.0011 µM, 0.0087 µM and 0.084 µM, respectively.

`O=S(=O)(Cc1ccccc1)Nc1c(F)cc(Oc2ncccc2-c2ccnc(N[C@@H]3CNC[C@H](F)C3)n2)c(F)c1F`: the concentration for half-maximal inhibition (IC50) in [1] was found to be 0.002 µM; in series [2], 0.023 µM; in series [3], 2.7 µM.

On to `Cc1ccc2c(NS(=O)(=O)CCC(F)(F)F)c(F)ccc2c1Oc1ncccc1-c1ccnc(N[C@H]2CCCNC2)n1`, for which the values for the concentration for half-maximal inhibition (IC50) in series [1], in [2] and in series [3] were 0.00039 µM, 0.0021 µM and 0.035 µM, respectively.

Regarding `O=S(=O)(Cc1ccccc1)Nc1c(F)cc(Oc2ncccc2-c2ccnc(N[C@@H]3CNC[C@@H](CF)C3)n2)c(F)c1F`, the half-inhibitory concentration (IC50) in series [1] worked out at 0.00078 µM; in [2], 0.015 µM; in series [3] it was 0.54 µM.

In [1], `Cc1cc(NS(=O)(=O)c2ccccc2Cl)c2ccccc2c1Oc1ncccc1-c1ccnc(N[C@H]2CC[C@H](N)CC2)n1` returned a half-inhibitory concentration (IC50) of 0.00085 µM.

For `CC(C)(C)c1nc(-c2ccc(NC(=O)Nc3cccc(C(F)(F)F)c3)c3ccccc23)c2c(N)nccn12`, the results for the 50% inhibitory concentration (IC50) in [1], in series [2] and in [3] were 0.036 µM, 0.2 µM and 0.18 µM, respectively.

For `O=S(=O)(Cc1ccccc1)Nc1c(F)cc(Oc2ncccc2-c2ccnc(N[C@H]3CCCNC3)n2)c(F)c1F`, the IC50 in series [1] is 0.0031 µM; in [2], 0.0045 µM; in series [3] it was 0.047 µM. The Papp A→B at 3 h, 10 µM in series [4] amounted to 1.4 ×10⁻⁶ cm/s.

On to `Cc1ccc2c(NS(=O)(=O)c3ccccc3Cl)cccc2c1Oc1ncccc1-c1ccnc(N[C@@H]2CCCNC2)n1`, for which the IC50 in [1] stood at 0.046 µM; in series [2] it was 0.42 µM; in series [3], 2.3 µM.

Turning to `Cc1ccc2c(NS(=O)(=O)CCC3CC3)cccc2c1Oc1ncccc1-c1ccnc(N[C@H]2CCCNC2)n1`, the IC50 was found to be 0.0018 µM in series [1], 0.019 µM in series [2] and 0.3 µM in series [3].

For `O=S(=O)(Cc1ccccc1)Nc1ccc(Oc2ncccc2-c2ccnc(N[C@H]3CCCNC3)n2)c(F)c1F`, the IC50 in series [1] came out at 0.00098 µM; in series [2] it was 0.0029 µM; in series [3] it was 0.088 µM. In addition, the Papp A→B at 3 h, 10 µM in series [4] is 2.1 ×10⁻⁶ cm/s.
